Source: patent publication EP1790655B1, “Biologically active peptides” (CMS Peptides Patent Holding Company Limited, priority 2001, dated 2003)

Assays:
[1] = tested on: L1210 leukemia; assay: survival of mice with transplanted L1210 leukemia; format: in vivo, DBA/2 mice; settings: 20mg/kg i.p. once per day from the day after transplanting, Kaplan-meier mean
Description: (§1) Intraperitoneal injection, once per day. […] Treatment of all groups with testing substance lasted for 30 days or until the animal died unless otherwise specified.
The mice were then killed by cervical vertebra dislocation and their ascitic fluid collected aseptically. […] Treatment started in the testing animals as described in section Method 1. Mean survival day was obtained by the Kaplan-meier method in the Survival option of the SPSS software. If the animal survived longer than the experiment, the survival days was entered as the duration of the experiment.

[2] = tested on: S180 sarcoma cells; assay: growth of transplanted S180 sarcoma in mice; format: in vivo, BALB/c mice; settings: 20mg/kg i.p. once per day from the day after transplanting
Experimental: as §1
The mice were killed by cervical vertebra dislocation. Vigorously growing and non-disrupted tumor masses were harvested and washed clean with sterile saline. The tissue was dispersed in saline to a homogenous cell suspension, in a ratio of 1 g tissue to 4 ml saline. […] Administration of test substance treatment started as described in section Method 1.
After the phagocytosis index study, the mice were killed by cervical vertebra dislocation. The liver, spleen, and cancer tissue were dissected, blotted dry, and weighed.

[3] = tested on: ascitic fluid type liver cancer H22; assay: survival of mice with transplanted ascitic fluid type liver cancer H22; format: in vivo, BALB/c mice; settings: 20mg/kg i.p. once per day from the day after transplanting, Kaplan-meier mean
Experimental: Intraperitoneal injection, once per day. […] The cyclophosphamide groups were treated on the next day after transplanting the cancer cells. Treatment of all groups with testing substance lasted for 30 days or until the animal died unless otherwise specified.
Stock H22 cells were incubated in DMEM/F12 medium supplemented with 10% fetal bovine serum, 37°C/5%CO2 for 72 hrs, then washed 3-4 times with Hank's solution at room temperature. Adjust cell concentration to 1-2 x 10^9 per litre with Hank's solution. 0.2ml of the cell suspension was implanted to the abdominal cavity of several BALB/c mice for 6-8 days. The mice were killed by cervical vertebra dislocation. Ascitic fluid of the mice was collected asceptically and the cell concentration adjusted to 1 x 10^6 per ml with Hank's solution. 0.2ml of the cell suspension was implanted into the abdominal cavity of healthy mice to generate the H22 carrying mouse model for ascitic fluid type liver cancer. Administration of test substance started as described in section Method 1. Survival data of the mice was recorded. If the animal survived longer than the experiment, the survival days was recorded as the duration of the experiment. […] The survival index was calculated according to the following formula: Survival index = (mean survival days of treatment group-mean survival days of control group)ömean survival days of control group x 100% [formula]

[4] = tested on: Masugi nephritis rat model; assay: Masugi nephritis rat model; format: in vivo, Sprague Dawley (SD) rats; settings: peptides 50µg/kg/day
Description: The anti-serum was then exuded and isolated.
Whole blood was collected from 15 healthy SD rats.
3. […] Treatment started on the day of induction.
4. […] Adequate drinking water was supplied.

SMILES | Survival days [1] [days] | Tumor weight [2] [g] | Survival days [3] [days] | spleen index (mean spleen weight / mean body weight) ([4]; after three weeks of treatment, hydrocortisone 3.3mg/kg/day (halved after first week) i.p.) | growth rate ([4]; nephritis rats, hydrocortisone 3.3mg/kg/day i.p.)
O=P1(N(CCCl)CCCl)NCCCO1 (centres unmarked) [Cyclo-phos phamide, Cyclophosphamide] | 24.0 ± 5.3 | 0.68 ± 0.32 | 24.7 ± 10.2 | – | –
C[C@]12CCC(=O)C=C1CC[C@@H]1[C@@H]2[C@@H](O)C[C@@]2(C)[C@H]1CC[C@]2(O)C(=O)CO [hydrocortisone, Hydrocortisone] | – | – | – | 4.5±1.4 x10-3 | slower growth rate than normal
